According to publication PMC9304066, “H2S biogenesis by cystathionine beta-synthase: mechanism of inhibition by aminooxyacetic acid and unexpected role of serine” (Cellular and Molecular Life Sciences: CMLS, 2022):
Where “and” joins values, the source holds several entries; their conditions need not be identical. Equal values may be shown once.

Tests used:
HEK293 cells = experiment: Bioenergetic analysis (Seahorse XFe24 flux analyzer); format: cell-based, human
Procedure: Bioenergetic analysis. The Seahorse XFe24 flux analyzer (Agilent Technologies, Santa Clara, CA, USA) was used to estimate mitochondrial respiration of HEK293 cells. Cells were seeded in Seahorse XFe24 Cell Culture Microplates at density of 15,000 cells/well in a total volume of 200 µl, incubated for 2 h, followed by treatment for 24 h as described above for H2S live imaging. Next day, culture medium was replaced for Seahorse XF DMEM supplemented with 2 mM glutamine, 1 mM pyruvate and 10 mM glucose. The microplate was then incubated in a CO2-free incubator at 37°C for 1 h, to allow temperature and pH equilibration, as recommended by the manufacturer. The assay protocol included two measurements of basal values of oxygen consumption rate (OCR), followed by the injection of 1 µM oligomycin, used to evaluate ATP generation rate. Subsequently, the mitochondrial oxidative phosphorylation uncoupler FCCP (0.2 µM) was added to estimate maximal mitochondrial respiratory capacity. Lastly, 0.5 µM of rotenone and antimycin A (each) were injected to inhibit the electron flux through the complex I and III, respectively, aiming to detect the extra-mitochondrial OCR. Data were analyzed with Wave package (version 2.6; Agilent Technologies, Santa Clara, CA, USA) and GraphPad Prism 8 (GraphPad Software Inc.; San Diego, CA, USA).

HsCBS = target: T1, HsCBS (Homo sapiens, UniProt P35520, DEL516-525); experiment: CBL-LDH coupled-coupled CBS assay, HsCBS; format: biochemical; conditions: for Reduction of activity catalyzing condensation of Cys and Hcy yielding H2S: AOAA-inhibited HsCBS (200 µM AOAA); for Vmax / kcat: CBL-LDH coupled-coupled assay
T1 construct: purchased GenScript
T1 sequence (P35520 with tags, fused parts or gaps DEL516-525): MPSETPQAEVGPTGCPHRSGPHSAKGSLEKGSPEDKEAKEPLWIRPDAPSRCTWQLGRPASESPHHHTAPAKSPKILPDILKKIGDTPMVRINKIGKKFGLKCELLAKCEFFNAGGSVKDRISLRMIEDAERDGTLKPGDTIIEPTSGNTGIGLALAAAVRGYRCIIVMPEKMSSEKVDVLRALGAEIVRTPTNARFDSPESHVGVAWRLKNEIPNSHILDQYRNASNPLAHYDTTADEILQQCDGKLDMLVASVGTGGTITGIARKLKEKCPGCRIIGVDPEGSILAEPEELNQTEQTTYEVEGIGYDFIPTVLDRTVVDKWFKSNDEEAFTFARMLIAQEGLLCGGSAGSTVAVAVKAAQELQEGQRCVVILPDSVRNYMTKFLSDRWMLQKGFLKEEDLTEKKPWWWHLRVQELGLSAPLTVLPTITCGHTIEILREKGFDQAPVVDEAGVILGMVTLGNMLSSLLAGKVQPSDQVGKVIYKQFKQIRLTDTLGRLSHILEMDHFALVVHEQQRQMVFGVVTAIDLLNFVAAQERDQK
Procedure: CBS coupled-coupled assay. CBS canonical activity utilizing Ser and Hcy was determined using cystathionine beta-lyase (CBL) and lactate-dehydrogenase (LDH) coupled-coupled assay as described previously with a few modifications. Native L-LDH from rabbit muscle was purchased from Sigma (catalog no. L2500) and recombinant CBL was purchased from Creative Enzymes (catalog no. NATE-1146). In a final volume of 150 µL, the reaction mixture contained 50 mM Tris–HCl pH 8.9, 20 µM PLP, 500 µM NADH, 1.3 µM LDH, 0.1 µM CBL, 0–20 mM Ser (or 0–50 mM Cys) and 500 ng of tScCBS or HsCBS. Assays with HsCBS were carried out in the absence or presence of 500 µM CBS allosteric activator S-adenosylmethionine (SAM). The reaction was triggered by the addition of 2 mM Hcy and the oxidation of NADH to NAD^+ was followed by monitoring the decrease in absorbance at 340 nm over time (ε340 = 6220 M^−1.cm^−1). […] All measurements were performed in triplicates using Tecan Infinite 200 PRO microplate reader. Kinetic data were analyzed using GraphPad Prism software.

tScCBS = target: T2, tScCBS (Saccharomyces cerevisiae, UniProt P32582); experiment: UV-Vis absorption titration of tScCBS (dissociation constants); format: binding; conditions: tScCBS 1 mg/mL, pH 8.5; decrease in absorbance at 412 nm (AOAA), increase at 460 nm (Ser) or 440 nm (Cys); 3 min incubation; read-out: Dissociation constant Kd (UV-Vis absorption)
T2 construct: 6xHis (C); made in house
T2 sequence (P32582 1-345): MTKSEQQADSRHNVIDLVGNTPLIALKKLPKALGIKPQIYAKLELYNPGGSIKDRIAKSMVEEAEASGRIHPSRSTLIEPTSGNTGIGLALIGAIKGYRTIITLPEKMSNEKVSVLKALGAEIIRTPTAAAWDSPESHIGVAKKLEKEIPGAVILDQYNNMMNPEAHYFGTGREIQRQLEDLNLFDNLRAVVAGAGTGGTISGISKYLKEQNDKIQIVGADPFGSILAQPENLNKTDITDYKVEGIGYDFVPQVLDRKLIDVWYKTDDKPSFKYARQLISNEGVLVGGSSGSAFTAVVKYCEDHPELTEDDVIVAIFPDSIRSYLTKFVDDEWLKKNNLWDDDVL
Procedure: CBS enzymes. Recombinant truncated Saccharomyces cerevisiae CBS lacking the C-terminal regulatory domain (residues 346–507) and carrying the C-terminal 6xHis tag (tScCBS) was prepared as described previously. Engineered recombinant Homo sapiens CBS lacking a loop protruding from the central β-strand of the CBS2 domain corresponding to the residues 516–525 (HsCBS; described in detail in [21]) was purchased from GenScript.
UV − Vis and fluorescence spectroscopy. Absorption spectra were collected on a Tecan Infinite M200 Pro spectrophotometer in a buffer containing 50 mM Tris–HCl pH 8.5, 20 mM NaCl and 0.5 mM tris(2-carboxyethyl)phosphine (TCEP). All the spectra were carried out with a protein concentration of 1 mg/mL with a 1 cm path-length quartz cuvette in a total volume of 150 µL. tScCBS was titrated directly in a cuvette by successive additions of different concentrations of AOAA, Ser and Cys, respectively, and spectra were recorded between 240 and 600 nm after an incubation time of 3 min at RT. Fluorescence emission spectra were collected under the same conditions upon PLP excitation at 410 nm. Blank spectra were subtracted from sample spectra.

Row | SMILES | Bioenergetics parameters (basal respiration, maximal respiration, ATP production) (HEK293 cells; HEK293, 150 µM AOAA, 24 h) | Reduction of activity catalyzing condensation of Cys and Hcy yielding H2S (HsCBS; absence of SAM) | Reduction of activity catalyzing condensation of Cys and Hcy yielding H2S (HsCBS; presence of SAM) | Effect on condensation of Ser and Hcy (canonical reaction) (HsCBS; HsCBS ± 500 µM SAM inhibited by 200 µM AOAA, 5 mM Ser + 2 mM Hcy) | Kd (tScCBS) | Impact on mitochondrial function (HEK293 cells; HEK293, 1, 3 and 10 mM Ser alone, 24 h) | Cellular bioenergetics compared to untreated controls (HEK293 cells; HEK293 inhibited by 150 µM AOAA, supplemented with 1, 3 or 10 mM Ser) | Vmax (HsCBS; HsCBS + SAM) | kcat (HsCBS; HsCBS + SAM) | Vmax (HsCBS; HsCBS – SAM) | kcat (HsCBS; HsCBS – SAM)
1 | NOCC(=O)O [AOAA, aminooxyacetic acid] | significant decrease | 63% | 71% | not impaired | ~6 µM | – | – | – | – | – | –
2 | N[C@@H](CO)C(=O)O [Ser, serine] | – | – | – | – | ~58 µM and 58.6 µM | did not have any significant impact | correction or normalization | 156.3 ± 7.6 µmol/h/mg | 2.7 ± 0.1 s⁻¹ | 37.2 ± 1.5 µmol/h/mg | 0.63 ± 0.06 s⁻¹
